Patent EP4610262A1, “MACROCYCLIC COMPOUND AS CDK9 INHIBITOR AND USE THEREOF” (Artivila Biopharma, priority 2022, dated 2024)

Assays:
[1] = test system: HCC1187; test: CDK9 cell activity assay, cell growth inhibition (CellTiter-Glo, 72 hours); format: cell-based; conditions: Homo sapiens
Method: (§1) In the CDK9 cell activity assay, the cell line MV-4-11 was cultured in IMDM culture medium containing 10% fetal bovine serum (containing 100 U/mL penicillin and 0.1 g/L streptomycin); the cell line HCC1187 was cultured in RPMI-1640 culture medium containing 10% fetal bovine serum (containing 100 U/mL penicillin and 0.1 g/L streptomycin); the cell line Mia Paca-2 was cultured in DMEM containing 10% fetal bovine serum and 2.5% horse serum (containing 100 U/mL penicillin and 0.1 g/L streptomycin); and the cell line A375 was cultured in RPMI-1640 culture medium containing 10% fetal bovine serum (containing 100 U/mL penicillin and 0.1 g/L streptomycin). All cells were cultured in an incubator with saturated humidity at 37°C with 5% CO2.
(§2) When MV-4-11 cells, HCC1187 cells, Mia Paca-2 cells, and A375 cells grew to 80%-90% confluence, they were digested with trypsin, resuspended, counted, and diluted to a certain cell density with complete medium. 100 µL of the cells was plated into each well of a 96-well plate, and the complete medium was used as a background control. The cells were cultured overnight in an incubator with saturated humidity at 37°C with 5% CO2. The compounds were diluted with DMSO to a final concentration of 200×. 3 µL of the stock solution of the above compounds in DMSO was added to 197 µL of complete medium, and 50 µL of the compound diluted in the medium was added to the cells of each well. The cells were cultured in an incubator with saturated humidity at 37°C with 5% CO2 for 72 hours. After 72 hours, the culture plates were placed at room temperature for equilibrium. 40 µL of CellTiter-Glo® reagent was added to each well. The plate was mixed evenly on a shaker for 2 minutes to lyse the cells then incubated at room temperature for 60 minutes to stabilize the chemiluminescent signal, and the chemiluminescence was read using a PE EnVision microplate reader. The inhibition rate on cell growth was calculated as % Inh = (DMSO well - compound treatment well) / (DMSO well - background well) x 100, and fitting was performed using GraphPad Prism 5 to obtain the IC50 values against cell growth.

[2] = test system: MV-4-11; test: as above; format: cell-based; conditions: Homo sapiens, MV4-11
Method: as §1, §2

[3] = biological target: CDK9 (Homo sapiens, UniProt P50750); test: Inhibition of CDK9 kinase activity (caliper mobility shift assay); format: biochemical; conditions: for IC50: 10 concentrations from 10 µM, three-fold dilutions
Method: Compounds were tested at a concentration of 10 nM with detection in duplicate wells, or tested at 10 concentrations starting from 10 µM with three-fold serial dilutions, with detection in duplicate wells.
The inhibitory effect of the compounds on the activity of CDK9 protein kinase was detected by the caliper mobility shift assay method. 250 nL of the compound at 100-fold final concentration was transferred to a target 384-well-plate with a dispenser Echo 550. A kinase solution at 2.5-fold final concentration was prepared using 1× kinase buffer. 10 µL of the kinase solution at 2.5-fold final concentration was added to the compound well and positive control well respectively. 10 µL of 1× kinase buffer was added to the negative control well. The 384-well plate was centrifuged at 1000 rpm for 30 seconds and incubated at room temperature for 10 minutes. A mixed solution of ATP and kinase substrate at 5/3-fold final concentration was prepared with 1× kinase buffer, and to the 384-well plate was added with 15 µL per well of the mixed solution of ATP and substrate at 5/3-fold final concentration to start the reaction. The plate was centrifuged at 1000 rpm for 30 seconds, shaken to mix evenly, and incubated at room temperature for a corresponding time. 30 µL of detection stopping solution was added to terminate the kinase reaction. The 384-well plate was centrifuged at 1000 rpm for 30 seconds and shaken to mix evenly. The conversion rate was read with Caliper EZ Reader. The percent conversion inhibition rate = (% positive control conversion rate mean - % sample conversion rate / (% positive control conversion rate mean - % negative control conversion rate mean). Among them: negative control wells represent the conversion rate readings of kinase buffer background wells; positive control wells represent the conversion rate readings of wells without inhibition by compound. With the log value of concentration as the x-axis and the percentage inhibition rate as the y-axis, a dose-response curve was fitted using the log (inhibitor) vs. response -Variable slope of the analysis software GraphPad Prism 5 to obtain the IC50 value of each compound on enzyme activity. Calculation formula: y=Bottom + (Top-Bottom)/(1+10^((LogIC50-x) × hillslope)), x: logarithm of inhibitor concentration; y: % inhibition rate.

Chain of CDK9 (P50750 whole entry): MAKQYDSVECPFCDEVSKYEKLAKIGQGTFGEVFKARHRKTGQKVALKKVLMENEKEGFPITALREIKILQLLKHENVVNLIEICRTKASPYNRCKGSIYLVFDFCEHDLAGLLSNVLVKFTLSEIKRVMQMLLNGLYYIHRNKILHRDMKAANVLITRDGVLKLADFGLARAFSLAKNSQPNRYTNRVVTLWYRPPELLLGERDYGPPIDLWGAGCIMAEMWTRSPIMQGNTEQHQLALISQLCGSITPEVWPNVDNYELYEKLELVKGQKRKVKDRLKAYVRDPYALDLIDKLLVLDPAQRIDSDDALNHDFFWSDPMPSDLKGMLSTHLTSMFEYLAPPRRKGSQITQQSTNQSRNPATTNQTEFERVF
Chain of CDK9 (O60563 whole entry partner): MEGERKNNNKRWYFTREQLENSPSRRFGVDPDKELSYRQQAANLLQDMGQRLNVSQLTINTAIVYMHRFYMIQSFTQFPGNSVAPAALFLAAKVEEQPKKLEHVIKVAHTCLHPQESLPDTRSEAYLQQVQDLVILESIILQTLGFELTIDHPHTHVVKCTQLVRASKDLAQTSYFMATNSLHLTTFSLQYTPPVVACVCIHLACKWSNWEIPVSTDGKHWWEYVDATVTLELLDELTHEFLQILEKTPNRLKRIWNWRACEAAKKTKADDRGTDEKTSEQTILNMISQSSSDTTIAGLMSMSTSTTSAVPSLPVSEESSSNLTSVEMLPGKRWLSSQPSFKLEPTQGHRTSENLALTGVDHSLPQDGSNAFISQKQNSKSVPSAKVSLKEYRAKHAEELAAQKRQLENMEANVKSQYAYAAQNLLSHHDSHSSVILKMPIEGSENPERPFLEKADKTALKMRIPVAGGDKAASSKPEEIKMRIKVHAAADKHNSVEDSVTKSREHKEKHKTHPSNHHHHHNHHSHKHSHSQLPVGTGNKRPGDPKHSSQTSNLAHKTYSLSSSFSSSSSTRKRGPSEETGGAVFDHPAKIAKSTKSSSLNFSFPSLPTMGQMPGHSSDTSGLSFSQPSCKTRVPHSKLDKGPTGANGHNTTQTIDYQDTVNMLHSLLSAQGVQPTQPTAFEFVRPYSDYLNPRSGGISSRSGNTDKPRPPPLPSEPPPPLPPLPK

| IC50 [1] [µM] | IC50 [2] [µM] | IC50 [3] [µM] | inhibition at 0.01 µM ([3]; compound at 10 nM, read-out: Inhibition rate on CDK9 kinase activity) [%] | Structure (SMILES) |
| --- | --- | --- | --- | --- |
| 0.25 to 1 | 0.25 to 1 | < 0.1 | – | Cc1ccc2cc1-c1nc(ncc1Cl)Nc1cnn(c1)CCNCCN2 [Compound 46, (E)-2^5-chloro-1^6-methyl-4^1H-3,7,10-triaza-2(4,2)-pyrimidina-4(4,1)-pyrazola-1(1,3)-benzenacycl odecaphane] |
| – | – | 0.1 to 0.5 | – | CN1CCN(c2ccc3cc2COCCCCCNc2nc(ncc2Cl)N3)CC1 [Compound 21, 1^5-chloro-3^4-(4-methylpiperazin-1-yl)-5-oxa-2,11-diaza-1(2,4)-pyrimidina-3(1,3)-benzenacyclou ndecaphane] |
| – | – | 0.1 to 0.5 | – | Clc1cnc2nc1NCCCCCn1cc(cn1)N2 [Compound 47, (E)-1^5-chloro-3^1H-2,9-diaza-1(2,4)-pyrimidina-3(4,1)-pyrazolacyclononaphane] |
| – | < 0.25 | < 0.1 | – | Cc1ccc2cc1-c1nc(ncc1Cl)Nc1cnn(c1)CCCCCN2 [Compound 28, (E)-2^5-chloro-1^6-methyl-4^1hydro-3,10-diaza-2(4,2)-diaza-2(4,2)-pyrimidina-4(4,1)-pyrazola-1(1, 3)-benzenacyclodecaphane] |
| – | – | < 0.1 | – | Clc1cnc2nc1-c1cnn(c1)CCCCCNc1cccc(c1)N2 [Compound 32, (Z)-2^5-chloro-1^1H-3,5-diaza-2(4,2)-pyrimidina-1(4,1)-pyrazola-4(1,3)-benzenacyclodecaphane] |
| – | – | 0.1 to 0.5 | – | Clc1cnc2nc1N1CCC(C1)OCCCNCc1cccc(c1)N2 (stereo not shown) [Compound 45, 2^5-chloro-10-oxa-3,6-diaza-2(4,2)-pyrimidina-1(1,3)-pyrrolidina-4(1,3)-benzenacyclodecaphane] |
| – | – | < 0.1 | – | Cc1ccc2cc1-c1nc(ncc1F)Nc1cccc(c1)NC/C=C\CN2 [Compound 29, (Z)-2^5-fluoro-1^6-methyl-3,5,10-triaza-2(4,2)-pyrimidina-1,4(1,3)-dibenzenacyclodecaphan-7-ene] |
| – | – | < 0.1 | – | Cc1ccc2cc1-c1nc(ncc1Cl)Nc1cccc(c1)CNCCCCO2 [Compound 36, 2^5-chloro-1^6-methyl-11-oxy-3,6-diaza-2(4,2)-pyrimidina-1,4(1,3)-dibenzocycloundecaphane] |
| 0.25 to 1 | < 0.25 | < 0.1 | – | Clc1cnc2nc1-c1cnn(c1)CC/C=C\CNc1cccc(c1)N2 [Compound 31, (1^4Z,7Z)-2^5-chloro-1^1H-3,5-diaza-2(4,2)-pyrimidina-1(4,1)-pyrazola-4(1,3)-benzenacyclodecaph an-7-ene] |
| – | – | < 0.1 | – | Cc1ccc2cc1-c1nc(ncc1F)Nc1cccc(c1)NCCCCN2 [Compound 30, 2^5-fluoro-1^6-methyl-3,5,10-triaza-2(4,2)-pyrimidina-1,4(1,3)-dibenzenacyclodecaphane] |
| – | – | < 0.1 | – | c1cc2cc(c1)Nc1nccc(n1)NCCCCCNC2 [Compound 24, 2,5,11-triaza-1(2,4)-pyrimidina-3(1,3)-benzocycloundecaphane] |
| 1 to 5 | 0.25 to 1 | < 0.1 | – | COc1ccc2cc1-c1nc(ncc1F)Nc1cccc(c1)NC/C=C\CN2 [Compound 39, (Z)-2^5-fluoro-1^6-methoxy-3,5,10-triaza-2(4,2)-pyrimidina-1,4(1,3)-dibenzenacyclooctyna-7-ene] |
| – | – | < 0.1 | – | Cc1ccc2cc1-c1nc(ncc1Cl)Nc1cnn(c1)CC/C=C\CN2 [Compound 27, (4^4E,7Z)-2^5-chloro-1^6-methyl-4^1hydro-3,10-diaza-2(4,2)-pyrimidina-4(4,1)-pyrazole-1(1,3)-benz enecyclodecane-7-ene] |
| – | – | 0.5 to 1 | – | Clc1cnc2nc1N1CCC(C1)NCCCCNCc1cccc(c1)N2 (stereo not shown) [Compound 44, 2^5-chloro-3,6,11-triaza-2(4,2)-pyrimidina-1(1,3)-pyrrolidina-4(1,3)-benzenacycloalkaphane] |
| – | – | < 0.1 | 25 to 49 | Cc1nc2sc1-c1nc(ncc1F)Nc1cccc(c1)NCCOCCN2 [Compound 5, 2^5-fluoro-1^4-methyl-8-oxa-3,5,11-triaza-1(5,2)-thiazol-2(4,2)-pyrimidina-4(1,3)-benzenacyclodec aphane] |
| – | – | < 0.1 | – | Cc1ccc2cc1-c1nc(ncc1Cl)Nc1cccc(c1)NCCCCN2 [Compound 22, 2^5-chloro-1^6-methyl-3,5,10-triaza-2(4,2)-pyrimidina-1,4(1,3)-dibenzocyclodecane] |
| – | – | < 0.1 | – | CN1CCCCCNCc2cccc(c2)Nc2ncc(Cl)c1n2 [Compound 25, 1^5-chloro-11-methyl-2,5,11-triaza-1(2,4)-pyrimidina-3(1,3)-benzocycloundecaphane] |
| < 0.25 | < 0.25 | < 0.1 | – | Cc1ccc2cc1-c1nc(ncc1Cl)Nc1cccc(c1)CNCCCN2 [Compound 35, 2^5-chloro-1^6-methyl-3,6,10-triaza-2(4,2)-pyrimidina-1,4(1,3)-dibenenacyclodecaphane] |
| < 0.25 | < 0.25 | < 0.1 | – | Cc1ccc2cc1-c1nc(ncc1Cl)Nc1cnn(c1)CCOCCN2 [Compound 41, (E)-2^5-chloro-1^6-methyl-4^1H-7-oxa-3,10-diaza-2(4,2)-pyrimidina-4(4,1)-pyrazola-1(1,3)-benzena cyclodecaphane] |
| – | – | < 0.1 | – | COc1ccc2cc1-c1nc(ncc1F)Nc1cccc(c1)NCCCCN2 [Compound 40, 2^5-fluoro-1^6-methoxy-3,5,10-triaza-2(4,2)-pyrimidina-1,4(1,3)-dibenzenacyclodecaphane] |

| Structure (SMILES) | IC50 [1] [µM] | IC50 [2] [µM] | IC50 [3] [µM] | inhibition at 0.01 µM ([3]; compound at 10 nM, read-out: Inhibition rate on CDK9 kinase activity) [%] |
| --- | --- | --- | --- | --- |
| Fc1cnc2nc1-c1cccc(c1)NC/C=C\CNc1cccc(c1)N2 [Compound 37, (Z)-2^5-fluoro-3,5,10-triaza-2(4,2)-pyrimidina-1,4(1,3)-dibenzenacyclooctyna-7-ene] | – | – | < 0.1 | – |
| Clc1cnc2nc1N1CCC(C1)NCCCNCc1cccc(c1)N2 (stereo not shown) [Compound 43, 2^5-chloro-3,6,10-triaza-2(4,2)-pyrimidina-1(1,3)-pyrrolidina-4(1,3)-benzenacyclodecaphane] | – | – | 0.5 to 1 | – |
| Fc1cnc2nc1-c1cccc(c1)NCCCCNc1cccc(c1)N2 [Compound 38, 2^5-fluoro-3,5,10-triaza-2(4,2)-pyrimidina-1,4(1,3)-dibenzenacyclodecaphane] | 0.25 to 1 | 0.25 to 1 | < 0.1 | – |
| Clc1cnc2nc1-c1cnn(c1)CCCCCCn1cc(c(Cl)n1)N2 [Compound 33, (1^4Z,4^4E,7Z)-2^5,4^3-chloro-1^1H,4^1H-3-aza-2(4,2)-pyrimidina-1,4(4,1)-bipyrazolacyclodecaphane] | – | – | 0.5 to 1 | – |
| Clc1cnc2nc1-c1cccc(c1)OCCCCNCc1cccc(c1)N2 [Compound 34, 2^5-chloro-11-oxa-3,6-diaza-2(4,2)-pyrimidina-1,4(1,3)-dibenzenacycloundecaphane] | – | – | < 0.1 | – |
| Cc1nc2sc1-c1nc(ncc1F)Nc1cccc(c1)NC/C=C\CN2 [Compound 6, (Z)-2^5-fluoro-1^4-methyl-3,5,10-triaza-1(5,2)-thiazolin-2(4,2)-pyrimidina-4(1,3)-benzenacyclodec aphan-7-ene] | – | – | 0.1 to 0.5 | – |
